This test has as its target T1, acetylcholine muscarinic M1 receptor (CHOnfat/hM1 cells) (Homo sapiens, UniProt P11229).
T1 construct: expressed in transfected cells; host or cells: CHOnfat cells (CHO; also called CHOK1/hM1)
T1 sequence (P11229 1-460): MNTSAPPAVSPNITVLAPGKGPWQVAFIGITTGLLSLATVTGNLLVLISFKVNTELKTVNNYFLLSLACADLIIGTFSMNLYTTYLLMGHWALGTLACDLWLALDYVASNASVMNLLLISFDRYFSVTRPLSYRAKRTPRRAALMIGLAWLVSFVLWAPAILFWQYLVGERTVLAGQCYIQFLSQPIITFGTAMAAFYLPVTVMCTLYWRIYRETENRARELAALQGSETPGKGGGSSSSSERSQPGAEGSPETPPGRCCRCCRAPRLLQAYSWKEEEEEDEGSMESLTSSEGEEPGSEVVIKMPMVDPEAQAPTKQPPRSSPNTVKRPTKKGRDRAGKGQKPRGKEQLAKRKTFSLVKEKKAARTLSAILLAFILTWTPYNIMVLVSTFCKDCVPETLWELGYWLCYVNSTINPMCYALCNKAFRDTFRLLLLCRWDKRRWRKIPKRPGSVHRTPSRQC
Description: FLIPR intracellular calcium assay for M1 positive allosteric modulator activity (acetylcholine EC20, 3 nM). The class given is cell-based. Particulars: 4 min preincubation, then EC20 acetylcholine (3 nM final), FLIPR Ca2+ readout, read-out: IP Value (inflection point). As to the method:
The assay studies the effect of one or several concentrations of test compounds on basal or acetylcholine-stimulated. Ca^2+ levels using FLJPR.
Compounds are prepared and subjected to a preincubation period of 4 min. Thereafter, a single EC20 concentration of acetylcholine is added to each well (3 nM final). The intracellular Ca^2+ level of each sample is measured and compared to an acetylcholine control to determine any modulatory activity.
Cells: CHOnfat/hM1, hM2, hM3 or hM4 cells are plated 24 hr before the assay at a density of 18,000 cells/well (100 μL) in a 384 well plate. CHOnfat/hM1 and CHOnfat/hM3 Growth Medium: 90% DMEM (Hi Glucose); 10% HI FBS; 2 mM L-glutamine; 0.1 mM NEAA; Pen-Strep; and 1 mg/ml Geneticin, are added. For M2Gqi5CHOnfat and M4Gqi5CHOnfat cells, an additional 600 ug/ml hygromycin is added.
Equipment: 384 well plate, 120 μL addition plate; 96-well Whatman 2 ml Uniplate Incubator, 37° C., 5% CO2; Skatron EMBLA-384 Plate Washer; Multimek Pipetting System; Genesis Freedom 200 System; Mosquito System; Temo Nanoliter Pipetting System; and FLIPR^384 Fluorometric Imaging Plate Reader System are used.
Buffers. Assay Buffer: Hanks Balanced Salt Solution, with 20 mM Hepes, 2.5 mM Probenecid (Sigma P-8761) first dissolved in 1 N NaOH, 1% Bovine Serum Albumin (Sigma A-9647). Dye Loading Buffer: Assay Buffer plus 1% Fetal Bovine Serum and Fluo-4AM/Pluronic Acid Mixture. 2 mM Fluo-4AM ester stock in DMSO (Molecular Probes F-14202) Concentration of 2 μM in buffer for a final concentration of 1 μM in Assay. 20% Pluronic Acid Solution stock, with concentration of 0.04% in Buffer, 0.02% in Assay.
65 μL of 2 mM Fluo-4AM are mixed with 130 μL of 20% Pluronic Acid. The resulting solution and 650 μL FBS is added to the assay buffer for a total volume of 65 mL. Positive Controls: 4-Br-A23187: 10 mM in DMSO; final concentration 10 μM. Acetylcholine: 10 mM in water, working stock at both 20 μM and 30 μM in assay buffer, final concentration of 10 μM. This is used to check the maximum stimulation of the CHOK1/hM1 cells, 20 μM (2×) acetylcholine is added in the preincubation part of the assay, and the 30 μM (3×) stock is added in the second part. (EC20) Acetylcholine: 10 mM in water, working stock of 9 nM (3×), and final concentration in assay is 3 nM. This is used after the preincubation with test compounds. Addition of the EC20 Acetylcholine to each well with a test compound will ascertain any modulator activity. 24 wells contain 3 nM Acetylcholine alone as a control.
Determining Activity of Putative Compounds:
Screening Plate Compounds are titrated in 96-well plates (columns 2-11), 100% DMSO, started at a concentration of 15 mM (150× stock concentration), and 3-fold serial dilutions using Genesis Freedom200 System. Four 96-well plates are combined into a 384-well plate using Mosquito Nanoliter Pipetting System by transferring 1 μl of serial diluted compounds to each well, and 1 mM acetylcholine (100× stock concentration) were added as a control. Using Temo, 49 μl assay buffer is added to each well of the 384-well plate right before assay.
In a 96-well Whatman 2 ml Uniplate, 9 nM Acetylcholine (3×) is pipetted into wells corresponding to the screening compounds, and into control wells. The 30 μM acetylcholine control (3×) is added into control wells, and the 3× agonist plate is transferred into a 384 well plate.
Cells are washed three times with 100 μL of buffer, leaving 30 μL of buffer in each well. Using Multimek, 30 μL of Dye Loading Buffer is added into each well and incubated at 37° C., 5% CO2 for up to one hr.
After 60 min, the cells are washed three times with 100 μL of buffer, leaving 30 μL of buffer in each well. The cell plate, screening plate, and agonist addition plates are placed on the platform in the FLIPR and the door closed. A signal test to check background fluorescence and basal fluorescence signal is performed. Laser intensity is adjusted if necessary. […]
Consider `CN1CN([C@H]2CCOC[C@@H]2O)C(=O)c2cc(Cc3ccc(Cl)nc3)c3ccccc3c21` [Example 2, 1,5-Anhydro-3-{6-[(6-chloropyridin-3-yl)methyl]-1-methyl-4-oxo-1,4-dihydrobenzo[h]quinazolin-3(2H)-yl}-2,3-dideoxy-L-threo-pentitol], for which the EC50 was determined as 6.3 nM.
With `Cn1ccc2c(Cc3cc4c(c5ccccc35)NCN([C@H]3CCOC[C@@H]3O)C4=O)cccc21` [Example 1, 1,5-Anhydro-2,3-dideoxy-3-{6-[(1-methyl-1H-indol-4-yl)methyl]-4-oxo-1,4-dihydrobenzo[h]quinazolin-3 (2H)-yl}-L-threo-pentitol] the figure was 15 nM; with `Cc1ccc(Cc2cc3c(c4ccccc24)N(C)CN([C@H]2CCCC[C@@H]2O)C3=O)cn1` [Example 4, 3-[(1S,2S)-2-Hydroxycyclohexyl]-1-methyl-6-[(6-methylpyridin-3-yl)methyl]-2,3-dihydrobenzo[h]quinazolin-4(1H)-one], 4 nM; with `CN1CN([C@H]2CCOC[C@@H]2O)C(=O)c2cc(Cc3ccnc(C(F)F)c3)c3ccccc3c21` [Example 7, 1,5-anhydro-2,3-dideoxy-3-[6-{[2-(difluoromethyl)pyridin-4-yl]methyl}-1-methyl-4-oxo-1,4-dihydrobenzo[h]quinazolin-3(2H)-yl]-L-threo-pentitol], 2.6 nM.
With `CSc1ccc(Cc2cc3c(c4ccccc24)NCN([C@H]2CCOC[C@@H]2O)C3=O)cn1` [Example 3, 1,5-Anhydro-2,3-dideoxy-3-[6-{[6-(methylsulfanyl)pyridin-3-yl]methyl}-4-oxo-1,4-dihydrobenzo[h]quinazolin-3(2H)-yl]-L-threo-pentitol] the figure was 11.5 nM.
The figure for `CCCN1CN([C@H]2CCCC[C@@H]2O)C(=O)c2cc(Cc3ccc(C)nc3)c3ccccc3c21` [Example 5, 3-[(1S,2S)-2-Hydroxycyclohexyl]-6-[(6-methylpyridin-3-yl)methyl]-1-propyl-2,3-dihydrobenzo[h]quinazolin-4(1H)-one] is 1170 nM.
As to `CN1CN([C@H]2CCOC[C@@H]2O)C(=O)c2cc(Cc3ccnc(CF)c3)c3ccccc3c21` [Example 6, 1,5-Anhydro-2,3-dideoxy-3-[6-{[2-(fluoromethyl)pyridin-4-yl]methyl}-1-methyl-4-oxo-1,4-dihydrobenzo[h]quinazolin-3 (2H)-yl]-L-threo-pentitol], the EC50 amounted to 2.7 nM.

For the origin of these results see US8664234B2, “Dihydrobenzoquinazolinone M1 receptor positive allosteric modulators” (Merck Sharp & Dohme Corp., priority 2010, dated 2014).
